Consider two molecules from US20240041715A1, “PROCESS FOR TREATING HUMAN PERSPIRATION AND BODY ODORS USING MAGNESIUM OXIDE AND A PHOSPHATE SALT” (L' OREAL, priority 2020, published 2024).

The assay is described as follows: in vitro "sniff test" model of deodorant effectiveness using human sweat incubated at 37° C. The conditions noted are these: average odor intensity rating, scores from 1=weak odor to 8=very strong odor, single ingredient. How it is done: The deodorant effectiveness of different KH2PO4/MgO mixtures at different molar ratios was studied in vitro in a “sniff test” model using human sweat incubated at 37° C.

Molecule `O=P([O-])(O)O.[K+]` [KH2PO4, potassium dihydrogen phosphate] showed an Odor intensity of 8. `[O]=[Mg]` [MgO, magnesium oxide] came in with an Odor intensity of 1.
